Test system: cells that depend on FLT3 for growth
Assay: Standard 72-hour cell proliferation assay, FLT3 dependent cell lines taken together
Assay type: cell-based
Settings: 72-hour proliferation; depending on the cell type
Experimental: The cell lines that were tested included those that are dependent on FLT3ITD mutant activity for growth (MV4-11 and Baf3-FLT3ITD), FLT3 wt activity for growth (Baf3FLT3) and those that grow independent of FLT3 activity (THP-1). […] Baf3-FLT3 and Baf3-FLT3ITD cell lines were obtained from Dr. Michael Henrich and the Oregon Health Sciences University. The Baf3 FLT3 cell lines were created by stable transfection of parental Baf3 cells (a murine B cell lymphoma line dependent on the cytokine IL-3 for growth) with either wild-type FLT3 or FLT3 containing the ITD insertion in the juxatamembrane domain of the receptor resulting in its constitutive activation. Cells were selected for their ability to grow in the absence of IL-3 and in either the presence of FLT3 ligand (Baf3-FLT3) or independent of any growth factor (Baf3-ITD). […]
Dose responses for the individual compounds alone were determined for each cell line using a standard 72-hour cell proliferation assay (see FIGS. 6.1-6.8). […]
Cell proliferation assay for MV4-11, Baf3-ITD, Baf3-FLT3 and THP-1 cells. […] Total cell growth is quantified as the difference in luminescent counts (relative light units, RLU) of cell number at Day 0 compared to total cell number at Day 3 (72 hours of growth and/or compound treatment). One hundred percent inhibition of growth is defined as an RLU equivalent to the Day 0 reading. […]

SMILES: Cn1cncc1C(N)(c1ccc(Cl)cc1)c1ccc2c(c1)c(-c1cccc(Cl)c1)cc(=O)n2C (single isomer, unassigned; (+)) [Tipifarnib, (+)-6-[amino(4-chlorophenyl)(1-methyl-1H-imidazol-5-yl)methyl]-4-(3-chlorophenyl)-1-methyl-2(1H)-quinolinone]
- single agent potency for inhibition of proliferation: high nanomolar to high picomolar range

Source: US20060281700A1, “SYNERGISTIC MODULATION OF FLT3 KINASE USING AMINOPYRIMIDINES KINASE MODULATORS” (priority 2005, published 2006)
